Measured values reported in the supplement of paper PMC10307832.

How the values were obtained:
Test in all cases: relative viability (nuclei count vs DMSO), 5 days (fraction); higher = more cells survive
[1] = system: NCI-H2009
Summary of the method: (§1)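 Lung cancer cell lines were pin-tool dosed in 1536-well plates on the day after seeding, with either a lone drug or a fixed anchor-drug dose plus five library-drug doses (not always all listed) in √10 steps. Nuclei were counted on 4× images after 5 days. Relative viability is the ratio of treated-well to vehicle-well nuclei counts, with each value a median of duplicate plates.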

[2] = system: HCC-366
Summary of the method: as §1

[3] = system: NCI-H661
Summary of the method: as §1

[4] = system: EKVX
Summary of the method: as §1

[5] = system: NCI-H2405
Summary of the method: as §1

[6] = system: SK-MES-1
Summary of the method: as §1

[7] = system: HCC-44
Summary of the method: as §1

[8] = system: BEN
Summary of the method: as §1

[9] = system: SK-LU-1
Summary of the method: as §1

[10] = system: LC-2-ad
Summary of the method: as §1

[11] = system: NCI-H2170
Summary of the method: as §1

[12] = system: NCI-H1792
Summary of the method: as §1

[13] = system: NCI-H596
Summary of the method: as §1

[14] = system: HARA
Summary of the method: as §1

[15] = system: LOU-NH91
Summary of the method: as §1

[16] = system: NCI-H2087
Summary of the method: as §1

[17] = system: NCI-H1734
Summary of the method: as §1

[18] = system: NCI-H2228
Summary of the method: as §1

[19] = system: NCI-H647
Summary of the method: as §1

[20] = system: NCI-H1355
Summary of the method: as §1

[21] = system: HCC-827
Summary of the method: as §1

[22] = system: NCI-H1395
Summary of the method: as §1

[23] = system: NCI-H1437
Summary of the method: as §1

## CC(C)Oc1cc(Nc2nc(N[C@@H](C)c3ccc(F)cn3)ncc2Cl)n[nH]1 [AZ23] + CS(=O)(=O)N1CCN(Cc2cc3nc(-c4cccc5[nH]ncc45)nc(N4CCOCC4)c3s2)CC1 [Pictilisib] (partner 1 µM)
[1]; first compound 0.01 µM
  relative viability: 0.943
[1]; first compound 0.03162 µM
  relative viability: 0.88
[1]; first compound 0.3162 µM
  relative viability: 0.854
[2]; first compound 0.01 µM
  relative viability: 0.14
[2]; first compound 0.03162 µM
  relative viability: 0.145
[2]; first compound 0.3162 µM
  relative viability: 0.147
[3]; first compound 0.01 µM
  relative viability: 0.402
[3]; first compound 0.03162 µM
  relative viability: 0.446
[3]; first compound 0.3162 µM
  relative viability: 0.423
[4]; first compound 0.01 µM
  relative viability: 0.481
[4]; first compound 0.03162 µM
  relative viability: 0.466
[4]; first compound 0.3162 µM
  relative viability: 0.444
[5]; first compound 0.01 µM
  relative viability: 0.412
[5]; first compound 0.03162 µM
  relative viability: 0.575
[5]; first compound 0.3162 µM
  relative viability: 0.429
[6]; first compound 0.01 µM
  relative viability: 0.329
[6]; first compound 0.03162 µM
  relative viability: 0.358
[6]; first compound 0.3162 µM
  relative viability: 0.387
[7]; first compound 0.01 µM
  relative viability: 0.727
[7]; first compound 0.03162 µM
  relative viability: 0.629
[7]; first compound 0.3162 µM
  relative viability: 0.572
[8]; first compound 0.01 µM
  relative viability: 0.527
[8]; first compound 0.03162 µM
  relative viability: 0.639
[8]; first compound 0.3162 µM
  relative viability: 0.653
[9]; first compound 0.01 µM
  relative viability: 0.408
[9]; first compound 0.03162 µM
  relative viability: 0.599
[9]; first compound 0.3162 µM
  relative viability: 0.553
[10]; first compound 0.01 µM
  relative viability: 0.386
[10]; first compound 0.03162 µM
  relative viability: 0.574
[10]; first compound 0.3162 µM
  relative viability: 0.357
[11]; first compound 0.01 µM
  relative viability: 0.288
[11]; first compound 0.03162 µM
  relative viability: 0.325
[11]; first compound 0.3162 µM
  relative viability: 0.304
[12]; first compound 0.01 µM
  relative viability: 0.248
[12]; first compound 0.03162 µM
  relative viability: 0.291
[12]; first compound 0.3162 µM
  relative viability: 0.302
[13]; first compound 0.01 µM
  relative viability: 0.359
[13]; first compound 0.03162 µM
  relative viability: 0.342
[13]; first compound 0.3162 µM
  relative viability: 0.397
[14]; first compound 0.01 µM
  relative viability: 0.421
[14]; first compound 0.03162 µM
  relative viability: 0.373
[14]; first compound 0.3162 µM
  relative viability: 0.282
[15]; first compound 0.01 µM
  relative viability: 0.483
[15]; first compound 0.03162 µM
  relative viability: 0.525
[15]; first compound 0.3162 µM
  relative viability: 0.528
[16]; first compound 0.01 µM
  relative viability: 0.867
[16]; first compound 0.03162 µM
  relative viability: 1.06
[16]; first compound 0.3162 µM
  relative viability: 0.964
[17]; first compound 0.01 µM
  relative viability: 0.429
[17]; first compound 0.03162 µM
  relative viability: 0.543
[17]; first compound 0.3162 µM
  relative viability: 0.487
[18]; first compound 0.01 µM
  relative viability: 0.523
[18]; first compound 0.03162 µM
  relative viability: 0.346
[18]; first compound 0.3162 µM
  relative viability: 0.394
[19]; first compound 0.03162 µM
  relative viability: 0.5
[19]; first compound 0.3162 µM
  relative viability: 0.447
[20]; first compound 0.01 µM
  relative viability: 0.367
[20]; first compound 0.03162 µM
  relative viability: 0.46
[20]; first compound 0.3162 µM
  relative viability: 0.401
[21]; first compound 0.01 µM
  relative viability: 1.11
[21]; first compound 0.03162 µM
  relative viability: 0.978
[21]; first compound 0.3162 µM
  relative viability: 1.11
[22]; first compound 0.03162 µM
  relative viability: 0.666
[22]; first compound 0.3162 µM
  relative viability: 0.577
[23]; first compound 0.01 µM
  relative viability: 0.374
[23]; first compound 0.03162 µM
  relative viability: 0.389
[23]; first compound 0.3162 µM
  relative viability: 0.46

## CC(C)Oc1cc(Nc2nc(N[C@@H](C)c3ccc(F)cn3)ncc2Cl)n[nH]1 [AZ23] + Cc1nc(NC(=O)N2CCC[C@H]2C(N)=O)sc1-c1ccnc(C(C)(C)C(F)(F)F)c1 [Alpelisib] (partner 2 µM)
[1]; first compound 0.01 µM
  relative viability: 1.13
[1]; first compound 0.03162 µM
  relative viability: 1.23
[1]; first compound 0.3162 µM
  relative viability: 1.19
[2]; first compound 0.01 µM
  relative viability: 0.391
[2]; first compound 0.03162 µM
  relative viability: 0.517
[2]; first compound 0.3162 µM
  relative viability: 0.334
[3]; first compound 0.01 µM
  relative viability: 0.629
[3]; first compound 0.03162 µM
  relative viability: 0.686
[3]; first compound 0.3162 µM
  relative viability: 0.908
[4]; first compound 0.01 µM
  relative viability: 0.923
[4]; first compound 0.03162 µM
  relative viability: 1.07
[4]; first compound 0.3162 µM
  relative viability: 0.978
[5]; first compound 0.01 µM
  relative viability: 0.708
[5]; first compound 0.03162 µM
  relative viability: 0.768
[5]; first compound 0.3162 µM
  relative viability: 0.754
[6]; first compound 0.01 µM
  relative viability: 1.01
[6]; first compound 0.03162 µM
  relative viability: 0.997
[6]; first compound 0.3162 µM
  relative viability: 1.06
[7]; first compound 0.01 µM
  relative viability: 0.858
[7]; first compound 0.03162 µM
  relative viability: 0.915
[7]; first compound 0.3162 µM
  relative viability: 0.871
[8]; first compound 0.01 µM
  relative viability: 1.02
[8]; first compound 0.03162 µM
  relative viability: 1.18
[8]; first compound 0.3162 µM
  relative viability: 1.09
[9]; first compound 0.01 µM
  relative viability: 1.28
[9]; first compound 0.03162 µM
  relative viability: 1.09
[9]; first compound 0.3162 µM
  relative viability: 0.973
[10]; first compound 0.01 µM
  relative viability: 1.01
[10]; first compound 0.03162 µM
  relative viability: 0.895
[10]; first compound 0.3162 µM
  relative viability: 0.892
[11]; first compound 0.01 µM
  relative viability: 0.87
[11]; first compound 0.03162 µM
  relative viability: 0.887
[11]; first compound 0.3162 µM
  relative viability: 0.831
[12]; first compound 0.01 µM
  relative viability: 1.08
[12]; first compound 0.03162 µM
  relative viability: 0.831
[12]; first compound 0.3162 µM
  relative viability: 0.83
[13]; first compound 0.01 µM
  relative viability: 0.51
[13]; first compound 0.03162 µM
  relative viability: 0.528
[13]; first compound 0.3162 µM
  relative viability: 0.418
[14]; first compound 0.01 µM
  relative viability: 1.18
[14]; first compound 0.03162 µM
  relative viability: 0.847
[14]; first compound 0.3162 µM
  relative viability: 0.774
[15]; first compound 0.01 µM
  relative viability: 0.676
[15]; first compound 0.03162 µM
  relative viability: 0.775
[15]; first compound 0.3162 µM
  relative viability: 0.699
[16]; first compound 0.01 µM
  relative viability: 1.39
[16]; first compound 0.03162 µM
  relative viability: 1.07
[16]; first compound 0.3162 µM
  relative viability: 1.07
[17]; first compound 0.01 µM
  relative viability: 0.683
[17]; first compound 0.03162 µM
  relative viability: 0.772
[17]; first compound 0.3162 µM
  relative viability: 0.649
[18]; first compound 0.01 µM
  relative viability: 0.88
[18]; first compound 0.03162 µM
  relative viability: 1.01
[18]; first compound 0.3162 µM
  relative viability: 0.67
[19]; first compound 0.01 µM
  relative viability: 1.63
[19]; first compound 0.03162 µM
  relative viability: 1.37
[19]; first compound 0.3162 µM
  relative viability: 1.17
[20]; first compound 0.01 µM
  relative viability: 0.876
[20]; first compound 0.03162 µM
  relative viability: 0.873
[20]; first compound 0.3162 µM
  relative viability: 0.782
[21]; first compound 0.01 µM
  relative viability: 1.11
[21]; first compound 0.03162 µM
  relative viability: 1.05
[21]; first compound 0.3162 µM
  relative viability: 1.07
[22]; first compound 0.03162 µM
  relative viability: 1.06
[22]; first compound 0.3162 µM
  relative viability: 1.08
[23]; first compound 0.01 µM
  relative viability: 0.949
[23]; first compound 0.03162 µM
  relative viability: 1.15
[23]; first compound 0.3162 µM
  relative viability: 1.06
